Measured values published in publication PMC5452050 (ACS Omega, 2017).
Residue numbers refer to the chain shown, from its start.

Legend:
MOLM13^FLT3-ITD cells = assay: MOLM13 cell viability; assay type: cell-based; conditions: Homo sapiens, MOLM-13, 72 h, read-out: MOLM13^FLT3-ITD IC50
FLT3 = target: T1, FLT3 (Homo sapiens, UniProt P36888); assay: Kd determination; assay type: binding
T1 sequence (P36888 27-993): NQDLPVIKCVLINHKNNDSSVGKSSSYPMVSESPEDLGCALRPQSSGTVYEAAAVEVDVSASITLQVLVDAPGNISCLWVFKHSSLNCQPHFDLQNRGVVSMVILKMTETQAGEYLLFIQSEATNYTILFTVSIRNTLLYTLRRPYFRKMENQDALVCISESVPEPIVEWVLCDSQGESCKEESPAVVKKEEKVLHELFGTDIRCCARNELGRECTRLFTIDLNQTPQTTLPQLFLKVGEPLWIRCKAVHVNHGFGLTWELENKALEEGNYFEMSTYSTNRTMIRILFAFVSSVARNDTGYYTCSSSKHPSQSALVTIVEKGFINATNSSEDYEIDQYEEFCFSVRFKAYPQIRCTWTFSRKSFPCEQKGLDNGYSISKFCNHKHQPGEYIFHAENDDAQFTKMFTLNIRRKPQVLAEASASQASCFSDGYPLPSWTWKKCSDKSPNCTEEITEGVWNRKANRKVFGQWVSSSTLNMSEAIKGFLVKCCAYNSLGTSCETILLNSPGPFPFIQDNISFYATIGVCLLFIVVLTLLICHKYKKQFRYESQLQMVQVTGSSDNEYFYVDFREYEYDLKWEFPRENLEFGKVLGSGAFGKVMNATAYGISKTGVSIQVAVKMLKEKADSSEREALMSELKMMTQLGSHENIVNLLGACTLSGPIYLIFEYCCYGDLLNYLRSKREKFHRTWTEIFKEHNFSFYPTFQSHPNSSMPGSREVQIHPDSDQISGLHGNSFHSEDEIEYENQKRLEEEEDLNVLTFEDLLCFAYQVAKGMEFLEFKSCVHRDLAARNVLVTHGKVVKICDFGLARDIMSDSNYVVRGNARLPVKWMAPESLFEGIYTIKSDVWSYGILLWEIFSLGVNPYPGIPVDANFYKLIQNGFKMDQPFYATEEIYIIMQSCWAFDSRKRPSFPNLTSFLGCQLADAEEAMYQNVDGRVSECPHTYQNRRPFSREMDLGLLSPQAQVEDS

FLT3 (D835V) = target: T2, FLT3 (D835V) (Homo sapiens, UniProt P36888, D835V); assay: Kd determination; assay type: binding
T2 sequence (P36888 27-993 D835V): T1 sequence (P36888 27-993) with D809V

FLT3 (K663Q) = target: T3, FLT3 (K663Q) (Homo sapiens, UniProt P36888, K663Q); assay: Kd determination; assay type: binding
T3 sequence (P36888 27-993 K663Q): T1 sequence (P36888 27-993) with K637Q

[1] = Liver microsomal stability; conditions: both, human, liver microsomes, pH 7.4

Structure (SMILES) | IC50 (MOLM13^FLT3-ITD cells) [nM] | Kd (FLT3) [nM] | Kd (FLT3 (D835V)) [nM] | Kd (FLT3 (K663Q)) [nM] | CLint scaled at 4 µM [1] [mL/min/kg] | half-life at 4 µM [1] [h] | fold more potent against FLT3 than PDGFRB and JAK1 JH2 domain (Kd) (FLT3)
c1cncc(-c2cccc(Nc3nccc(NC4CCCCC4)n3)c2)c1 [Compound 1, N^4-Cyclohexyl-N^2-(3-(pyridin-3-yl)phenyl)pyrimidine-2,4-diamine] | 620 | 61 | 7.7 | 110 | 26.6 ± 2.2 | 0.8 ± 0.1 | 
CC(C)Nc1ccnc(Nc2cccc(-c3cccnc3)c2)n1 [Compound 5e, N^4-Isopropyl-N^2-(3-(pyridin-3-yl)phenyl)pyrimidine-2,4-diamine] | 136 | 3.6 | 0.8 | 13 | 10 ± 0.6 | 2.1 ± 0.1 | approximately 8 fold
CC(C)Nc1ccnc(Nc2ccccc2-c2ccccc2)n1 [Compound 6a, N^2-([1,1′-Biphenyl]-2-yl)-N^4-isopropylpyrimidine-2,4-diamine] | > 10000 | > 10000 | > 10000 | > 10000 |  |  | 
